Data: patent EP0603755A2, “Cephalosporin salts and processes for their preparation” (HOECHST AKTIENGESELLSCHAFT, priority 1992, dated 1994)
Blank lines part the entries; values can stand above or below the molecule they belong to.

Assays:
[1] = Qualitative solubility of the salts (observed on crystallisation from water); details: in water, partly relative to the salt of the other Articain enantiomer
[2] = Pharmacokinetics after intramuscular administration; antibiotic content in blood/serum by agar diffusion test; format: in vivo, Hund
Text: Zur Bestimmung der pharmakokinetischen Eigenschaften der erfindungsgemäßen Cephalosporin-Articainsalze wurden unter […] Untersuchungen an Mäusen und Hunden durchgeführt. Die […] und die korrespondierenden Alkalisalze der Cephalosporine wurden in therapeutisch üblichen Dosierungen intramuskulär verabreicht. Zu festgelegten Zeitpunkten nach der Injektion des Antibiotikums wurden den Versuchstieren Blutproben entnommen und der Antibiotika-Gehalt im Blut bzw. Serum mit Hilfe des Agardiffusionstestes bestimmt. Die pharmakokinetischen […] Computerprogramms ermittelt.

SMILES: CCCNC(C)C(=O)Nc1c(C)csc1C(=O)OC.CON=C(C(=O)NC1C(=O)N2C(C(=O)O)=C(COC(N)=O)CSC12)c1ccco1 (single isomer, unassigned; (+)) [(+) Articain-Cefuroximsalz]
Löslichkeit [1]: schwerlösliche

SMILES: CCCNC(C)C(=O)Nc1c(C)csc1C(=O)OC.CON=C(C(=O)NC1C(=O)N2C(C(=O)O)=C(COC(C)=O)CSC12)c1csc(N)n1 (single isomer, unassigned; (+)) [(+)-Articain-Cefotaxim, ( +)-Articain-Cefotaximsalz]
Halbwertszeit ([2]; dog, in vivo, im): 4,1 Stunden

SMILES: CCCCOC(=O)c1scc(C)c1NC(=O)C(C)NCCC.CO/N=C(\C(=O)N[C@@H]1C(=O)N2C(C(=O)O)=C(COC(C)=O)CS[C@H]12)c1csc(N)n1 [Beispiel 10, Cefotaximsalz von (+ )n-Butyl 4-methyl-3(2-n-propylaminopropionamido) thiophen-2-carboxylat]
Halbwertszeit ([2]; Hund, intramuscular application, blood/serum level by agar diffusion test): 6,6 Stunden

The remaining lines, values ahead:

Löslichkeit [1]: leichter löslich in Wasser
SMILES: CCCNC(C)C(=O)Nc1c(C)csc1C(=O)OC.CON=C(C(=O)NC1C(=O)N2C(C(=O)O)=CCSC12)c1csc(N)n1 (single isomer, unassigned; (-)) [(-)-Articain-Ceftizoximsalz]

half-life ([2]; dog, im, Hund, intramuscular application, blood/serum level by agar diffusion test, read-out: Halbwertszeit (converted)): 48 min
SMILES: CO/N=C(\C(=O)N[C@@H]1C(=O)N2C(C(=O)O)=C(COC(C)=O)CS[C@H]12)c1csc(N)n1 [Cefotaxim, reference compound]
